What all share (assay type): functional, cell-based
Test [1] has as its system MIA PaCa-2. Description: Cytotoxicity against human MIA PaCa-2 cells assessed as inhibition of cell growth incubated for 72 hrs by MTT assay. To be noted: MIA PaCa-2, 72 h.
In test [2] the test system is BXPC-3. Description: Cytotoxicity against human BXPC-3 cells assessed as inhibition of cell growth incubated for 72 hrs by MTT assay. To be noted: BXPC-3, 72 h.
For test [3], the system named is PANC-1. Description: Cytotoxicity against human PANC-1 cells assessed as inhibition of cell growth incubated for 72 hrs by MTT assay. To be noted: PANC-1, 72 h.

IC50 data for 45 molecules are collected here from ChEMBL document CHEMBL5154879, “Induction of Genes Implicated in Stress Response and Autophagy by a Novel Quinolin-8-yl-nicotinamide QN523 in Pancreatic Cancer” (J Med Chem, 2022).

SMILES strings stand for the structures.

Regarding `O=C(Nc1cccc2cccnc12)c1ccc(F)nc1`, the 50% inhibitory concentration (IC50) in test [1], in test [2] and in test [3] was greater than 10 µM each time.
In the case of `Cc1cnc(C(=O)Nc2cc(OCCN)cc3cccnc23)cn1`, the IC50 in test [1], in test [2] and in test [3] was greater than 10 µM each time.
`CC(C)(C)OC(=O)N1CCC(CCOc2cc(NC(=O)c3ncccn3)c3ncccc3c2)CC1`: the IC50 in test [1], in test [2] and in test [3] was greater than 10 µM each time.
For the molecule `O=C(Nc1cccc2cccnc12)c1cnc(Cl)cn1`, the 50% inhibitory concentration (IC50) in test [1] is 7 µM; in test [2] it was greater than 10 µM; in test [3], 9.3 µM.
For the molecule `NCCOc1cc(NC(=O)c2cnccn2)c2ncccc2c1`, the concentration for half-maximal inhibition (IC50) in test [1], in test [2] and in test [3] was greater than 10 µM each time.
Consider `O=C(Nc1cc(Cl)cc2cccnc12)c1cnccn1`, for which the half-maximal inhibitory concentration (IC50) was 2.83 µM in test [1], greater than 10 µM in test [2] and 2.7 µM in test [3].
The like results for `Cc1cnc(C(=O)Nc2cccc3ccc(C)nc23)cn1` were, in that order, greater than 10 µM, greater than 10 µM and greater than 10 µM.
On to `Cc1cnc(C(=O)Nc2ccc3ncccc3c2)cn1`, for which the half-maximal inhibitory concentration (IC50) in test [1], in test [2] and in test [3] was greater than 10 µM in each case.
For the molecule `O=C(Nc1cc(OCCN2CCOCC2)cc2cccnc12)c1cnccn1`, the 50% inhibitory concentration (IC50) in test [1] was determined as 1.7 µM; in test [2], 5.17 µM; in test [3] it was 8.17 µM.
The like results for `O=C(Nc1cccc2cccnc12)c1ncc2ccccc2n1` were, in that order, greater than 10 µM, greater than 10 µM and greater than 10 µM.
In the same order, the values of `Cc1cnc(C(=O)Nc2cccc3ncccc23)cn1` are greater than 10 µM, greater than 10 µM and greater than 10 µM.
In the same order, the values of `O=C(Nc1cccc2cccnc12)c1ccc(Br)nc1` are greater than 10 µM, greater than 10 µM and greater than 10 µM.
As for `O=C(Nc1cc(Cl)cc2cccnc12)c1ncccn1`, the IC50 was 0.8 µM in test [1], greater than 10 µM in test [2] and 4.67 µM in test [3].
With `Cc1cnc(C(=O)Nc2ccc(Br)c3cccnc23)cn1`, the results for the concentration for half-maximal inhibition (IC50) in test [1], in test [2] and in test [3] were 2.2 µM, greater than 10 µM and 6.8 µM, respectively.
Regarding `O=C(Nc1ccc(Br)c2cccnc12)c1cnccn1`, the IC50 is 0.75 µM in test [1], 7.5 µM in test [2] and 7 µM in test [3].
Consider `O=C(Nc1cc(F)cc2cccnc12)c1cnccn1`, for which the half-inhibitory concentration (IC50) is 0.13 µM in test [1], greater than 10 µM in test [2] and 0.67 µM in test [3].
The like results for `O=C(Nc1nccc2cccnc12)c1cnccn1` were, in that order, 7.7 µM, 7.2 µM and 6.7 µM.
In the same order, the values of `O=C(Nc1cc(F)cc2cccnc12)c1ncccn1` are 0.3 µM, greater than 10 µM and 5.3 µM.
In the same order, the values of `Cc1cnc(C(=O)Nc2cc(Cl)cc3cccnc23)cn1` are 1.5 µM, 5.2 µM and 1.77 µM.
Turning to `Cc1cnc(C(=O)Nc2cc(OCCC3CCNCC3)cc3cccnc23)cn1`, the concentration for half-maximal inhibition (IC50) in test [1] is 6.17 µM; in test [2] it was 8.33 µM; in test [3], greater than 10 µM.
For the molecule `CN(C)Cc1ccc2cccc(NC(=O)c3cnccn3)c2n1`, the half-inhibitory concentration (IC50) in test [1], in test [2] and in test [3] was greater than 10 µM in each case.
Take `CN(C)CCOc1cc(NC(=O)c2cnccn2)c2ncccc2c1`: the 50% inhibitory concentration (IC50) in test [1], in test [2] and in test [3] was greater than 10 µM each time.
In the case of `COc1cc(NC(=O)c2ncccn2)c2ncccc2c1`, the 50% inhibitory concentration (IC50) in test [1] was 1.3 µM; in test [2], greater than 10 µM; in test [3] it was 9 µM.
In the same order, the values of `Cc1ccc2cccc(NC(=O)c3cnccn3)c2n1` are greater than 10 µM, greater than 10 µM and greater than 10 µM.
The like results for `Cc1cnc(C(=O)Nc2cc(OCCC3CCN(C(=O)OC(C)(C)C)CC3)cc3cccnc23)cn1` were, in that order, 9 µM, 9.33 µM and 9.67 µM.
In the same order, the values of `CC(C)(C)OC(=O)C1CCN(CCOc2cc(NC(=O)c3cnccn3)c3ncccc3c2)CC1` are 3.67 µM, 3.33 µM and 9.5 µM.
In the case of `CC(C)(C)OC(=O)NCCOc1cc(NC(=O)c2ncccn2)c2ncccc2c1`, the IC50 in test [1], in test [2] and in test [3] was greater than 10 µM in each case.
With `Cc1cnc(C(=O)Nc2cc(OCCN3CCOCC3)cc3cccnc23)cn1`, the results for the 50% inhibitory concentration (IC50) in test [1], in test [2] and in test [3] were 0.73 µM, 2 µM and 3.5 µM, respectively.
In the same order, the values of `Cc1cnc(C(=O)Nc2cc(OCCN(C)C)cc3cccnc23)cn1` are 1.8 µM, 9.67 µM and 4.5 µM.
For the molecule `COc1cc(NC(=O)c2cnccn2)c2ncccc2c1`, the half-inhibitory concentration (IC50) in test [1] turned out to be 0.47 µM; in test [2] it was 0.47 µM; in test [3], 2.17 µM.
With `O=C(Nc1cc(OCCN2CCCCC2)cc2cccnc12)c1cnccn1`, the half-inhibitory concentration (IC50) in test [1], in test [2] and in test [3] was greater than 10 µM each time.
As to `O=C(Nc1cccc2cccnc12)c1ccc(Br)cn1`, the IC50 in test [1] is 1.8 µM; in test [2], greater than 10 µM; in test [3], 4 µM.
The like results for `O=C(Nc1cccc2cccnc12)c1cccnn1` were, in that order, 8.5 µM, greater than 10 µM and greater than 10 µM.
In the same order, the values of `Cc1cnc(C(=O)Nc2cccc3cccnc23)cn1` are 0.5 µM, 9.4 µM and 1.8 µM.
In the same order, the values of `CC(C)(C)OC(=O)NCCOc1cc(NC(=O)c2cnccn2)c2ncccc2c1` are 0.87 µM, 9.17 µM and 9.5 µM.
With `O=C(Nc1cccc2cccnc12)c1cccc(Br)n1`, the IC50 in test [1], in test [2] and in test [3] was greater than 10 µM in each case.
As to `Cc1cnc(C(=O)Nc2cc(F)cc3cccnc23)cn1`, the values for the IC50 in test [1], in test [2] and in test [3] were 0.31 µM, greater than 10 µM and 2.1 µM, respectively.
In the same order, the values of `O=C(Nc1cc(OCCF)cc2cccnc12)c1cnccn1` are 0.37 µM, 4.33 µM and 0.53 µM.
The like results for `COc1cc(NC(=O)c2cnc(C)cn2)c2ncccc2c1` were, in that order, 0.27 µM, 6.7 µM and 0.8 µM.
On to `Cc1ccc(C(=O)Nc2cccc3cccnc23)cn1`, for which the half-inhibitory concentration (IC50) in test [1], in test [2] and in test [3] was greater than 10 µM throughout.
Consider `NCCOc1cc(NC(=O)c2ncccn2)c2ncccc2c1`, for which the IC50 in test [1], in test [2] and in test [3] was greater than 10 µM in each case.
For the molecule `Cc1cnc(C(=O)Nc2cc(OCCNC(=O)OC(C)(C)C)cc3cccnc23)cn1`, the IC50 worked out at 0.67 µM in test [1], 3.67 µM in test [2] and 2.17 µM in test [3].
In the case of `O=C(Nc1cccc2cccnc12)c1ncccn1`, the concentration for half-maximal inhibition (IC50) in test [1] is 0.33 µM; in test [2] it was greater than 10 µM; in test [3], greater than 10 µM.
With `Cc1ccc2cccc(NC(=O)c3ncccn3)c2n1`, the IC50 in test [1], in test [2] and in test [3] was greater than 10 µM in each case.
Take `O=C(Nc1cc(OCCC2CCNCC2)cc2cccnc12)c1ncccn1`: the IC50 in test [1], in test [2] and in test [3] was greater than 10 µM throughout.
